What was measured:
[1] = target: T1, Multidrug resistance-associated protein 1 (Homo sapiens, UniProt P33527); experiment: Activity at MRP1 in human HeLa T5 cells assessed as ATP-dependent drug transport at 50 nM measured per mg of protein; type: cell-based; details: 0.05 µM
[2] = target: T1, Multidrug resistance-associated protein 1; experiment: Activity of MRP1

T1 sequence (P33527 whole entry): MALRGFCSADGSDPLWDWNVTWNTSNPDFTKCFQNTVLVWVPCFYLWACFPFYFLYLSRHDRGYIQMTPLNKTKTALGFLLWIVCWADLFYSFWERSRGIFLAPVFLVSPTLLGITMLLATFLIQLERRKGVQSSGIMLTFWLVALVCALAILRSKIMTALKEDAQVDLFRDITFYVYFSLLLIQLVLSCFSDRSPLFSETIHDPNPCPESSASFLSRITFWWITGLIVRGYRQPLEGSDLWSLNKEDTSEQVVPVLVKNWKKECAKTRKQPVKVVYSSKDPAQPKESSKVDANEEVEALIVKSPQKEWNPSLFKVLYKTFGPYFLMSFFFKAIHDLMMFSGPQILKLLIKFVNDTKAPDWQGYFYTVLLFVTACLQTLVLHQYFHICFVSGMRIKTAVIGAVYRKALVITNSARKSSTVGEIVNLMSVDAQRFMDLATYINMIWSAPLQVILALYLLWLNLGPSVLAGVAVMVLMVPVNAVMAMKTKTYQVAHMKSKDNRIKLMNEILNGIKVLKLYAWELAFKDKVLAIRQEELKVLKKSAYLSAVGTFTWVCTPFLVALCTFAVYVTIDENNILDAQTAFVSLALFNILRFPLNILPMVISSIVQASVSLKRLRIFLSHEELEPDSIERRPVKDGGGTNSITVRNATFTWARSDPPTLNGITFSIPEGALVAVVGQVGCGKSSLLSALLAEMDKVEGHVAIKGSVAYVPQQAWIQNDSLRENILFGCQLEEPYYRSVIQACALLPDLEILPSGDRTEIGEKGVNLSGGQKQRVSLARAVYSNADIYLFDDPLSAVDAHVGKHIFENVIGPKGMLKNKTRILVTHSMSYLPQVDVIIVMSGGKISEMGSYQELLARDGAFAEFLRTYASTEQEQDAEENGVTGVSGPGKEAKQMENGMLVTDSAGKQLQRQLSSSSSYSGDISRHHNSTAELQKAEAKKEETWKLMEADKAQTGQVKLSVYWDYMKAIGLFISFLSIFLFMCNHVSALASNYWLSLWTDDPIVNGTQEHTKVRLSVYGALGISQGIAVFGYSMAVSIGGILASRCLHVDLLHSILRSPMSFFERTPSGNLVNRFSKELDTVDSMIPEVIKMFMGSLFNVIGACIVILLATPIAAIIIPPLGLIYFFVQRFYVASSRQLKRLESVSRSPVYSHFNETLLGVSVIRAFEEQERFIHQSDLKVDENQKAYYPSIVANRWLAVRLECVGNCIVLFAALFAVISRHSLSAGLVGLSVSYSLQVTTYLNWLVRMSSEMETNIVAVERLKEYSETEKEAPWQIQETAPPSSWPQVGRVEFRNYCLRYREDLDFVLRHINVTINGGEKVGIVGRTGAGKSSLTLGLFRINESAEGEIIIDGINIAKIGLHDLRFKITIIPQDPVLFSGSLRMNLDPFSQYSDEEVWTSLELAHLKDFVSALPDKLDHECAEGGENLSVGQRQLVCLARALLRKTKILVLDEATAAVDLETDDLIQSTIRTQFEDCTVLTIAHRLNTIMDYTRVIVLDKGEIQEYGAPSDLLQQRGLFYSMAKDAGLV

Row | Activity [1] [pmol/min] | Km [2] [µM] | Compound
1 | 15 | – | CCCCC/C=C\C\C=C/C=C/C=C/[C@@H](SC[C@H](N)C(=O)NCC(=O)O)[C@@H](O)CCCC(=O)O [LEUKOTRIENE D4]
2 | 8 | – | CCCCC/C=C\C\C=C/C=C/C=C/[C@@H](SC[C@H](N)C(=O)O)[C@@H](O)CCCC(=O)O [LEUKOTRIEN E4]
3 | – | 12 | Cc1ccc(N(CC(=O)O)CC(=O)O)c(OCCOc2cc(-c3c4cc(Cl)c(=O)cc-4oc4cc(O)c(Cl)cc34)ccc2N(CC(=O)O)CC(=O)O)c1

From ChEMBL document CHEMBL1140936, “Topological polar surface area defines substrate transport by multidrug resistance associated protein 1 (MRP1/ABCC1)” (J Med Chem, 2009)
